Data set [1] has as its system S. aureus. Kind of data set: Resistance development under constant treatment for 17 days. Type of data set: cell-based, Staphylococcus aureus. Particulars: 24 h cycles repeated for 17 days.
Data set [2] relates to influenza virus. Particulars: mouse model, cited from earlier work; for effect of treatment started late post infection: 48 h or more post infection, previous studies.
The subject of data set [3] is S. aureus 6850. Nature of the data set: Over-night treatment, bacterial titers (CFU/ml), strain 6850. Format: cell-based, Staphylococcus aureus. Particulars: for effect on bacterial titers: over-night treatment, concentrations as indicated in figures.
Data set [4] concerns H1N1pdm09. Kind of data set: Lung virus titration assay in mice (Example 11). Type of data set: in vivo, C57BL/6 mice. Particulars: for virus titer in the lung (control set to 100%): 24 h after infection. As for the experimental part: (A) After H1N1pdm09 infection female C57BL/6 mice were treated with either 2.8, 8.4 or 25 mg/kg PD-0184264 (left side) or with 25, 75 or 150 mg/Kg […] (left side) the oral route. 24 hrs after infection the animals were killed and lung was taken to prepare a 10% suspension. Virus titer was determined using the standard method. Virus titer of mice treated with the two MEK-inhibitors were compared to virus titer of mice treated with solvent (Control) alone. Virus tier in the lungs of control mice was set to 100% (black bar). Graphpad Prism 7 software was used to illustrate both figures.
For oral application of 25 mg/kg, 2.5 mg of PD-0184264 were dissolved in 50 μl DMSO (Sigma-Aldrich, Germany) and further diluted with 0.15 ml Cremophor EL (Merck-Millipore, Germany) and 0.8 ml PBS (Gibco, Germany). For application of 8.4 mg/kg and 2.8 mg/kg, 0.84 mg or 0.28 mg PD-0184264 were dissolved with 50 μl DMSO (Sigma-Aldrich, Germany) and further diluted with 0.15 ml Cremophor EL/0.8 ml PBS.
Eight week old female C57Bl/6 mice (Charles River Laboratories, Germany) with a body weight of 21.0-24.0 g at administration were used for antiviral studies. The animals were normally fed. Drinking water was available ad libitum.
Drugs were administrated using a single dosing on test day 1 by oral gavage. The application speed was 15 s per dose with an administration volume of 200 μl.
Mice were sacrificed 24 h post infection and lungs were weighed, transferred into a Lysing Matrix D tube (MP Bio) and BSS was applied in an amount of the 10-fold volume of the lung. Organs were shredded using the FastPrep FP 120 (Savant). To remove the cell debris the homogenates were centrifuged for 15 min at 2000 rpm and the supernatant collected. The determination of virus titer in homogenates was performed using the AVICEL® plaque assay as described previously (Haasbach et al. 2011, Mastrosovich et al. 2006).

The test system of data set [5] is MRSA strain USA300. Nature of the data set: Over-night treatment, bacterial titers (CFU/ml), MRSA USA300. To be noted: for effect on bacterial titers: over-night treatment, concentrations as indicated in figures. Type of data set: cell-based, Staphylococcus aureus.
In data set [6] the test system is influenza virus strain A/Regensburg/D6/2009, (RB1, H1N1pdm09). Kind of data set: Lung virus titer in influenza-infected mice (Example 1). Format: in vivo, C57BL/6 mice. The procedure:
8 weeks old C57BL/6 mice (five per group) were infected with 1.5×10^5 PFU (5×MLD50) of the influenza virus strain A/Regensburg/D6/2009, (RB1, H1N1pdm09). […] All animals received a volume of 200 μl per os. Mice were sacrificed 24 h post infection and lungs were weighed, transferred into a Lysing Matrix D tube (MP Bio) and BSS (buffered salt solution) in an amount of the 10-fold volume of the lung was applied to the samples. Organs were shredded using the FastPrep FP 120 (Savant). To remove the cell debris the homogenates were centrifuged for 15 min at 2000 rpm and the supernatant collected. The determination of virus titer in homogenates was performed using the AVICEL® plaque assay. Results are presented in FIG. 1 as virus titer (log 10) pfu/ml (left) or % virus titer (right). Virus titer was determined by two investigators independently. Mean values from all titrations were presented.

Data set [7] relates to A549 cells infected with IAV (H1N1) and/or S. aureus 6850. Type of data set: cell-based.
Data set [8] relates to S. aureus 6850. Nature of the data set: Time-of-addition assay, bacterial growth. Type of data set: cell-based, Staphylococcus aureus.
The subject of data set [9] is S. aureus strain 6850. Kind of data set: Bacterial growth under heat stress, strain 6850. Particulars: 20 μM over night, then 42° C. for 6 h. Type of data set: cell-based, Staphylococcus aureus. As for the experimental part: (§1) As the kinase is known to play an important role in bacterial stress resistance, bacterial growth under heat stress was monitored after treatment of the bacteria with the inhibitor PD-0184264. S. aureus strain 6850 and MRSA strain USA300 were treated over night with either solvent or 20 μM of the PD-0184264. The next day subcultures with the same amount of bacteria were prepared (confirmed by OD600 and plating on BHI agar) and further incubated at 42° C. for 6 h. Bacterial titers were then calculated via plating of serial dilutions on BHI agar plates. […] This is both observed for the methicillin-sensitive strain 6850 (black bars) as well as for the MRSA strain USA300 (grey bars). Impaired stress tolerance in the presence of the inhibitor is another indication that PD-0184264 directly targets the kinase PknB, which is an important mediator of stress resistance. In summary, the data provide strong circumstantial evidence, that PD-0184264 elicits its antibacterial action by inhibition of the bacterial kinase PknB.

The subject of data set [10] is MRSA strain USA300. Kind of data set: Bacterial growth under heat stress, MRSA USA300. Format: cell-based, Staphylococcus aureus. Particulars: 20 μM over night, then 42° C. for 6 h. As for the experimental part: as §1
The test system of data set [11] is Streptococcus pneumoniae strains TIGR4 (serotype 4) and D39 wt (serotype 2). Nature of the data set: Growth of Streptococcus pneumoniae (OD600, CFU/ml). Type of data set: cell-based. Particulars: over-night treatment, different concentrations. As for the experimental part:
Additionally, these kinases share high homology to cellular MAP kinases (e.g. ERK, JNK, p38). […] Thus, the impact of PD-0184264 on different strains of Streptococci pneumonia was analyzed. Streptococcus pneumoniae strains can be divided into different serotypes, which differ in their virulence and overall pathogenicity. To test for a serotype- or strain-independent effect, we used the encapsulated strains D39 and TIGR4, which are both virulent, but belong to different serotypes. […] Then, the OD600 was measured again (Results shown in FIG. 11A) and dilution series were objected to BHI agar plates to determine bacterial titers (Results shown in FIG. 11B).

For data set [12], the system named is A549 cells. Kind of data set: A549 cell viability (trypan blue) and LDH release. Format: cell-based, human. To be noted: 1, 5, 10, 20, 50 or 100 μM, 24 or 48 hours. The procedure:
To rule out that the reduction in viral and intracellular bacterial replication was a result of a cytotoxic effect of PD-0184264 on A549 cells, cell viability in presence of increasing concentrations was monitored for 24 and 48 hours. Additionally, a LDH-Assay was performed to determine membrane rupture due to inhibitor treatment. […] A549 cells were treated for 24 (as shown in FIGS. 15A and C) or 48 (as shown in FIGS. 15B and D) hours with increasing concentrations of PD-0184264 (1, 5, 10, 20, 50 or 100 μM). After the incubation times, supernatants were taken for measurement of LDH release (shown in FIGS. 15C, D) using the CytoSelect LDH Cytotoxicity Assay Kit according to the manufacturer's instructions. Additionally, viable cells were counted by staining with trypan blue. Cell viability was normalized to DMSO-treated cells and is shown as % viability. […] Statistical significance was calculated by one-way ANOVA followed by Dunnett's multiple comparisons test (* p<0.05; ** p<0.01; 27 *** p<0.001).
(In general: LDH leaks from cells whose membrane has failed.)

Data set [13] concerns A549 cells. Nature of the data set: WST-assay. Format: cell-based, human. To be noted: 24 h, FIG. 17C. The procedure: A549 cells were seeded in a 96-well flat-bottom tissue plate (Greiner, Germany) and were grown overnight. […] Thereafter, 10 μl WST-1 reagent (Roche, Germany) was added to the culture medium and incubated for four hours. During this time, the stable tetrazolium salt WST-1 was cleaved to a soluble formazan by metabolically active cells in the culture. After this incubation period, the formazan dye formed was quantitated with ELISA reader at 405 nm. The measured absorbance directly correlated to the number of viable cells.

The test system of data set [14] is strain A/Regensburg/D6/2009 Influenza H1N1pdm09. Kind of data set: Survival of infected mice with late start of treatment. Particulars: 25 mg/kg oral BID. Format: in vivo, C57BL/6 mice.

We go through six compounds from US12350244B2, “MEK-inhibitor for the treatment of viral and bacterial infections” (priority 2019, dated 2025).

Where two headings read alike, the source gives them in different places.

With `CC[C@H]1OC(=O)[C@H](C)[C@@H](O[C@H]2C[C@@](C)(OC)[C@@H](O)[C@H](C)O2)[C@H](C)[C@@H](O[C@@H]2O[C@H](C)C[C@H](N(C)C)[C@H]2O)[C@](C)(O)C[C@@H](C)C(=O)[C@H](C)[C@@H](O)[C@]1(C)O` [Erythromycin], in data set [1], the resistance development entry is “readily develop resistances”.
With `CCOC(=O)C1=C[C@@H](OC(CC)CC)[C@H](NC(C)=O)[C@@H](N)C1` [oseltamivir], the “effect of treatment started late post infection” value in data set [2] was “no longer effective”; in data set [2] (listed as Tamiflu), “no effect”.
Consider `O=C(NOCC1CC1)c1ccc(F)c(F)c1Nc1ccc(I)cc1Cl` [CI-1040, 2-(2-chloro-4-iodophenylamino)-N-(cyclopropylmethoxy)-3,4-difluoro benzamide, reference compound], for which, in data set [3], the “effect on bacterial titers” value is “effective”. Moreover, the “doses showing any effect in reduction of virus titer” value in data set [4] (oral, 25, 75 or 150 mg/kg tested) is no less than 75 mg/kg. For the same compound, the “treatment window post infection” value in [2] (Haasbach et al. 2017 and further experiments of the applicant) is recorded as “at least 48 h”.
Turning to `N#CC(=C(/N)Sc1ccccc1N)/C(C#N)=C(\N)Sc1ccccc1N` [U0126], the “effect on bacterial titers” value in data set [3] and in data set [5] was “minor reduction in bacterial titers” each time.
As for Gentamicin, the bacterial titers entry is “no reduction in bacterial titers” in data set [3] (0.5 μg/ml, over night) and “no reduction in bacterial titers” in [5] (0.5 μg/ml, over night). Besides, the resistance development entry in data set [1] was “resistance development occurred during the first week of treatment”.
One may read the CC50 as the concentration giving 50% cytotoxicity. A high value points to lower toxicity to the cells. For `O=C(O)c1ccc(F)c(F)c1Nc1ccc(I)cc1Cl` [PD-0184264, 2-(2-chloro-4-iodophenylamino)-N-3,4-difluoro benzoic acid], the “virus titer in the lung, effect compared with CI-1040” value in data set [6] (25 mg/kg PD-0184264 per os in an 8 h interval, 24 h post infection, FIG. 1) is listed as “same effect as 150 mg/kg CI-1040”. Besides, the “efficacy in vivo by oral administration” value in data set [6] (25 and 75 mg/kg per os) is “effective”. In addition, in [3] (10 μM, FIG. 4 (strains 6850 and USA300)), the bacterial growth result is “significant reduction of growth”. Further, the “effect on bacterial titers” value in data set [3] and in [5] was “very strong reduction in bacterial load” each time. Moreover, the “concentration at which reduction of the cytopathic effect is already shown” value in [7] (co-infection, FIG. 5) worked out at 15 µM. In addition, the “cytopathic effect (CPE), cell monolayer” value in data set [7] (increasing concentrations, 24 h, IAV H1N1 MOI 0.001 and S. aureus 6850 MOI 0.1) is “reversed in a concentration dependent manner”. The “inhibition of bacterial growth compared with all other compounds” value in [8] (0, 3 h and 6 h post inoculation, versus U0126 and gentamicin 0.5 or 2 μg/ml) is listed as “strongest inhibition of bacterial growth”. Further, the “mode of antibacterial action” value in data set [8] (after medium exchange and incubation without substances) is listed as “bacteriostatic rather than a bactericidal action”. For the same compound, the resistance development entry in data set [1] is recorded as “did not induce resistance”. Also, the “bacterial growth under heat stress” value in [9] and in data set [10] was “strongly impaired” each time. The “sensitivity of both serotypes (OD600, bacterial titers)” value in [11] is “sensitive”. Further, the “cell toxicity (viability, LDH release)” value in [12] was “does not induce cell toxicity”. Moreover, the half-maximal cytotoxic concentration (CC50) in [13] is greater than 1.58 mM. For the same compound, the “virus titer in the lung (control set to 100%)” value is “approx. 70%” in [4] (2.8 mg/kg oral), “approx. 20%” in data set [4] (8.4 mg/kg oral) and “approx. 10%” in [4] (25 mg/kg oral). Further, the “mice protected (survival)” value was “six out of eight” in data set [14] (treatment started 24 hours after infection), “five out of eight” in data set [14] (treatment started 48 hours after infection) and “two out of eight” in [14] (treatment started 72 hours after infection).
